Results: article PMC4562501 (Anesthesiology, 2014)
Read-outs that look alike come from different tables or passages of the source.

How the values were obtained:
[1] = oral methadone; for Plasma Cmax/dose: control session, n=16, mean ± SD
[2] = clinical; details: both, human, in vivo, po, oral methadone; for Tmax: Plasma Tmax; for half-life: Plasma t½
[3] = system: healthy volunteers; test: Miosis; assay type: in vivo, human
[4] = Intravenous methadone pharmacokinetics, protocol 2; assay type: in vivo; details: both, human, plasma
[5] = system: P-gp; details: well-known P-gp substrate, for comparison; cited from earlier work
[6] = system: healthy volunteers; test: Miosis; assay type: in vivo, human; details: IV methadone
[7] = system: healthy volunteers; test: Thermal analgesia; assay type: in vivo, human; details: IV methadone
[8] = racemic methadone; cited from earlier work
[9] = system: P-gp; details: Caco-2 cells; cited from earlier work
[10] = system: healthy volunteers; test: Thermal analgesia; details: oral methadone
[11] = system: P-gp; details: tariquidar 6 mg/kg, humans; cited from earlier work

For `CC=C1N(C)C(C)CC1(c1ccccc1)c1ccccc1` (stereo not shown) [EDDP, 2-ethylidene-1,5-dimethyl-3,3-diphenylpyrrolidine], the “Increase of EDDP/methadone AUC ratio by cyclosporine” value [1] was 11-15%.

In the case of `CC=C1N(C)C(C)CC1(c1ccccc1)c1ccccc1` (stereo not shown) [R-EDDP, 2-ethylidene-1,5-dimethyl-3,3-diphenylpyrrolidine], the “Plasma AUC0-96/dose” value ([1]; control) is reported as 6.7 ± 1.6 ng·h/mL/mg, the “Urine %dose eliminated (0-24 h)” value ([1]; control) is reported as 4.2 ± 2.3 %dose and the “Urine %dose eliminated (0-96 h)” value ([1]; control) is reported as 9 ± 4 %dose. For the same compound, the “Plasma Cmax/dose” value [1] was 0.24 ± 0.09 ng/mL/mg, the “Plasma AUC0-96/dose” value ([1]; cyclosporine-treated) was 8.2 ± 1.9 ng·h/mL/mg and the “Urine %dose eliminated (0-24 h)” value ([1]; cyclosporine-treated) was 4.2 ± 1.8 %dose. For the same compound, the “Urine %dose eliminated (0-96 h)” value ([1]; cyclosporine-treated) was 10 ± 4 %dose, the Tmax ([2]; control) was 2.5 ± 0.5 h and the Tmax ([2]; cyclosporine-treated) was 4.1 ± 1.1 h. It also gave a half-life ([2]; control) of 57 ± 22 h and a half-life ([2]; cyclosporine-treated) of 73 ± 38 h.

For `CCC(=O)C(C[C@@H](C)N(C)C)(c1ccccc1)c1ccccc1` [R-Methadone, R-methadone], the “Plasma concentration at which miosis was detectable (average)” value ([3]; plasma R-methadone) was 5 ng/mL.

With `CC=C1N(C)C(C)CC1(c1ccccc1)c1ccccc1` (stereo not shown) [S-EDDP, 2-ethylidene-1,5-dimethyl-3,3-diphenylpyrrolidine] the “Plasma AUC0-96/dose” value ([1]; control) was 11.6 ± 3.2 ng·h/mL/mg, the “Plasma Tmax” value ([1]; control) was 2.3 ± 0.7 h and the “Plasma t½” value ([1]; control) was 87 ± 25 h. The “Urine %dose eliminated (0-24 h)” value ([1]; control) was 7.2 ± 3.8 %dose, the “Urine %dose eliminated (0-96 h)” value ([1]; control) was 15 ± 6 %dose and the “Plasma Cmax/dose” value [1] was 0.35 ± 0.17 ng/mL/mg. For the same compound, the “Plasma AUC0-96/dose” value ([1]; cyclosporine-treated) was 14.4 ± 3.5 ng·h/mL/mg, the “Plasma t½” value ([1]; cyclosporine-treated) was 102 ± 39 h and the “Urine %dose eliminated (0-24 h)” value ([1]; cyclosporine-treated) was 7.4 ± 3.7 %dose. For the same compound, the “Urine %dose eliminated (0-96 h)” value ([1]; cyclosporine-treated) was 16 ± 8 %dose and the “Plasma AUC0-96 (EDDP/methadone) ratio (cyclosporine/control)” value ([1]; geometric mean and 90% confidence interval) was 1.15 (1.04, 1.27).

For `CCC(=O)C(C[C@H](C)N(C)C)(c1ccccc1)c1ccccc1` [S-Methadone, S-methadone], the AUC(0-t) [4] was 282 ± 68 ng·h/mL, the AUC(0-t) ([4]; 0.1 mg/kg) was 276 ± 47 ng·h/mL and the Cmax ([4]; 0.1 mg/kg) was 32.2 ± 7.9 ng/mL. It also gave a Tmax ([2]; control) of 2 ± 0.5 h and a Tmax ([2]; cyclosporine-treated) of 4.6 ± 2.3 h.

For `CN(C)C(=O)C(CCN1CCC(O)(c2ccc(Cl)cc2)CC1)(c1ccccc1)c1ccccc1` [loperamide], the Transport ratio [5] is given as “exceeds 10”.

For `CCC(=O)C(CC(C)N(C)C)(c1ccccc1)c1ccccc1` (stereo not shown) [methadone], the “Miotic response (average)” value ([3]; oral methadone) was 2 mm, the “Peak miosis (dose-adjusted)” value ([3]; oral methadone, controls) was 1.4 ± 0.4 mm/mg and the “Peak miosis (dose-adjusted)” value ([3]; oral methadone, cyclosporine-treated subjects) was 1.3 ± 0.5 mm/mg. The “Miotic response (average)” value [6] was 2.5 mm, the Peak miosis ([6]; controls) was 3.1 ± 1.0 mm and the Peak miosis ([6]; cyclosporine-treated subjects) was 3.2 ± 0.8 mm. The “Analgesic effect (thermal)” value [7] was “minimal analgesic effects”, the “Median minimal effective (postoperative) analgesia threshold” value [8] was 31 ng/mL and the “Reduction of rhodamine transport” value [9] was 25%. The “Maximally tolerated temperature (method of limits)” value [10] was “increased the maximally tolerated temperature” and the “Verbal analog ratings to discrete temperatures” value [10] was “small and brief analgesic effect”.

For `COc1cc2c(cc1OC)CN(CCc1ccc(NC(=O)c3cc(OC)c(OC)cc3NC(=O)c3cnc4ccccc4c3)cc1)CC2` [tariquidar], the “Increase in brain concentrations of (R)-[11C]verapamil” value [11] is listed as 2.5 fold and the “Increase in brain concentrations of [11C]N-desmethyl-loperamide” value [11] is listed as 4 fold.
